Experimental data published in ChEMBL document CHEMBL1142867, “Antiviral activity of triazine analogues of 1-(S)-[3-hydroxy-2-(phosphonomethoxy)propyl]cytosine (cidofovir) and related compounds” (J Med Chem, 2007).
Values after ≈ are worked out from the molar mass of the structure shown.

Key:
[1] = tested on: Human immunodeficiency virus 1; format: functional, organism-based; conditions: Human immunodeficiency virus 1, 3B, CCRF-CEM
Human alphaherpesvirus 2 [2] = format: functional, organism-based; conditions: Human alphaherpesvirus 2, G, HEL
[3] = tested on: Vesicular stomatitis virus; test: microbe, parasite or virus in culture; conditions: HeLa
[4] = tested on: Respiratory syncytial virus; format: functional, organism-based; conditions: human respiratory syncytial virus, Long, HeLa
Human respirovirus 3 = format: functional, organism-based; conditions: Human respirovirus 3, Vero
Punta Toro virus = format: functional, organism-based; conditions: Vero
[5] = tested on: Human immunodeficiency virus 2; format: functional, organism-based; conditions: Human immunodeficiency virus 2, ROD, CCRF-CEM
Vaccinia virus = format: functional, organism-based; conditions: Orthopoxvirus vaccinia, Lederle, HEL
Hepatitis C virus = test: Antiviral activity against HCV in Huh5-2 cells assessed as inhibition of HCV subgenomic replicon replication; format: functional, organism-based, Hepacivirus hominis; conditions: Huh-5-2
[6] = Cytotoxicity against HEL cells assessed as alteration in cell morphology after 3 days; format: cell-based; conditions: human, read-out: Activity
Coxsackievirus B4 [7] = format: functional, organism-based; conditions: Enterovirus B, Vero
[8] = Cytotoxicity against HeLa cells assessed as alteration in cell morphology; format: cell-based; conditions: human
[9] = Cytotoxicity against Vero cells assessed as alteration in cell morphology; format: cell-based; conditions: chlorocebus sabaeus
[10] = tested on: Moloney murine sarcoma virus; test: Antiviral activity against MSV in mouse C3H cells assessed as inhibition of virus-induced transformation after 6 days; format: functional, organism-based; conditions: 144 h
[11] = Cytotoxicity against C3H cells assessed as alteration in cell morphology; format: cell-based; conditions: mouse
HEL = test: Cytotoxicity against HEL cells assessed as inhibition of cell growth after 3 days; format: cell-based; conditions: human, 72 h
[12] = Cytotoxicity against Huh5-2 cells assessed as reduction of cell growth; format: cell-based, Huh-5-2; conditions: human
Yellow fever virus = format: functional, organism-based; conditions: Vero
Human alphaherpesvirus 1 [13] = format: functional, organism-based; conditions: Human alphaherpesvirus 1, KOS, HEL
[14] = tested on: Mammalian orthoreovirus 1; format: functional, organism-based; conditions: Mammalian orthoreovirus 1, Vero
Coxsackievirus B4 [15] = format: functional, organism-based; conditions: Enterovirus B, HeLa
Human alphaherpesvirus 3 [16] = test: Antiviral activity against VZV OKA in HEL cells assessed as inhibition of plaque formation; format: functional, organism-based; conditions: Human alphaherpesvirus 3, OKA
[17] = Cytotoxicity against CEM cells assessed as reduction of cell growth; format: cell-based; conditions: human, CEM (CCRF-CEM) cells
[18] = Cytotoxicity against E6SM cells assessed as alteration in cell morphology; format: cell-based; conditions: human
Sindbis virus = format: functional, organism-based; conditions: Vero
Human betaherpesvirus 5 [19] = format: functional, organism-based; conditions: Human betaherpesvirus 5, AD169, HEL
Human alphaherpesvirus 3 [20] = test: Antiviral activity against TK- VZV 07-1 in HEL cells assessed as inhibition of plaque formation; format: functional, organism-based; conditions: Human alphaherpesvirus 3, 07-1, HEL
Human alphaherpesvirus 2 [21] = format: functional, organism-based; conditions: Human alphaherpesvirus 2, Lyons, HEL
[22] = tested on: Vesicular stomatitis virus; test: microbe, parasite or virus in culture; conditions: E6SM
Human adenovirus 2 = format: functional, organism-based; conditions: Human mastadenovirus C, HEL
Human betaherpesvirus 5 [23] = format: functional, organism-based; conditions: Human betaherpesvirus 5, Davis, HEL
Human alphaherpesvirus 1 [24] = format: functional, organism-based; conditions: Human alphaherpesvirus 1, KOS, HEL; remark: listed apart in the source

Compound	EC50 [1]	EC50 (Human alphaherpesvirus 2 [2])	EC50 [3]	EC50 [4]	EC50 (Human respirovirus 3)	EC50 (Punta Toro virus)	EC50 [5]	MCC at 72 h [6]	EC50 (Coxsackievirus B4 [7])	MCC [8]	MCC [9]	EC50 [10]	MCC [11]	Activity (HEL)	EC50 (Human alphaherpesvirus 1 [13])	EC50 [14]	EC50 (Coxsackievirus B4 [15])	MCC [18]	EC50 (Sindbis virus)	EC50 (Human alphaherpesvirus 1 [24])	other results
Nc1cnn(C[C@@H](CO)OCP(=O)(O)O)c(=O)n1	> 100 µg/mL	31.5 µg/mL (≈ 112 µM)	> 400 µg/mL	> 400 µg/mL	> 80 µg/mL	> 80 µg/mL	> 100 µg/mL	> 100 µg/mL	> 80 µg/mL	> 400 µg/mL	400 µg/mL	170 µg/mL (≈ 607 µM)	100 µg/mL	> 50 µg/mL	8.84 µg/mL (≈ 31.6 µM)	> 80 µg/mL	> 400 µg/mL	> 400 µg/mL	> 80 µg/mL	24.9 µg/mL (≈ 88.9 µM)	EC50 (Vaccinia virus): 63.1 µg/mL (≈ 225 µM); EC50 (Hepatitis C virus): 750 µg/mL (≈ 2680 µM); CC50 [12]: 111 µg/mL (≈ 396 µM); EC50 (Yellow fever virus): > 100 µg/mL; EC50 (Human alphaherpesvirus 3 [16]): 38.2 µg/mL (≈ 136 µM); CC50 [17]: > 100 µg/mL; EC50 (Human betaherpesvirus 5 [19]): 30 µg/mL (≈ 107 µM); EC50 (Human alphaherpesvirus 3 [20]): 18.4 µg/mL (≈ 65.7 µM); EC50 (Human alphaherpesvirus 2 [21]): ≥ 43.4 µg/mL; EC50 [22]: > 400 µg/mL; EC50 (Human adenovirus 2): > 100 µg/mL; EC50 (Human betaherpesvirus 5 [23]): 37.3 µg/mL (≈ 133 µM)
Nc1nc2c(ncn2COCCO)c(=O)[nH]1 [ACYCLOVIR]		0.048 µg/mL (≈ 0.213 µM)						> 100 µg/mL						173.5 µg/mL	0.015 µg/mL (≈ 0.0666 µM)					> 20 µg/mL	
Nc1ncn(C[C@H](CO)OCP(=O)(O)O)c(=O)n1	> 100 µg/mL	12.6 µg/mL (≈ 45 µM)	> 200 µg/mL	> 200 µg/mL	> 200 µg/mL	> 200 µg/mL	> 100 µg/mL	> 100 µg/mL	> 200 µg/mL	> 200 µg/mL	> 200 µg/mL	> 100 µg/mL	> 100 µg/mL	> 100 µg/mL	11.8 µg/mL (≈ 42.1 µM)	> 200 µg/mL	> 200 µg/mL	> 200 µg/mL	> 200 µg/mL	17.8 µg/mL (≈ 63.5 µM)	EC50 (Vaccinia virus): ≥ 81.6 µg/mL; CC50 [12]: > 50 µg/mL; EC50 (Human alphaherpesvirus 3 [16]): 13.8 µg/mL (≈ 49.3 µM); CC50 [17]: > 100 µg/mL; EC50 (Human betaherpesvirus 5 [19]): 7.3 µg/mL (≈ 26.1 µM); EC50 (Human alphaherpesvirus 2 [21]): 14.8 µg/mL (≈ 52.8 µM); EC50 [22]: > 200 µg/mL; EC50 (Human betaherpesvirus 5 [23]): 8.9 µg/mL (≈ 31.8 µM)
Nc1ncn(C[C@H](O)CO)c(=O)n1	> 100 µg/mL	> 100 µg/mL	> 100 µg/mL	> 100 µg/mL	> 100 µg/mL	> 100 µg/mL	> 100 µg/mL	> 100 µg/mL	> 100 µg/mL	> 100 µg/mL	> 100 µg/mL	> 100 µg/mL	> 100 µg/mL	> 100 µg/mL	> 100 µg/mL	> 100 µg/mL	> 100 µg/mL	> 100 µg/mL	> 100 µg/mL	> 100 µg/mL	EC50 (Vaccinia virus): > 100 µg/mL; EC50 (Human alphaherpesvirus 3 [16]): > 100 µg/mL; CC50 [17]: > 100 µg/mL; EC50 (Human betaherpesvirus 5 [19]): > 100 µg/mL; EC50 (Human alphaherpesvirus 3 [20]): > 100 µg/mL; EC50 (Human alphaherpesvirus 2 [21]): > 100 µg/mL; EC50 [22]: > 100 µg/mL; EC50 (Human betaherpesvirus 5 [23]): > 100 µg/mL
O=c1[nH]c(=O)n([C@H]2C[C@H](O)[C@@H](CO)O2)cc1/C=C/Br [BRIVUDINE]	> 100 µg/mL		> 400 µg/mL	> 400 µg/mL	> 400 µg/mL	> 400 µg/mL	> 100 µg/mL	> 100 µg/mL	> 400 µg/mL	> 400 µg/mL	> 400 µg/mL	> 100 µg/mL	> 100 µg/mL	>= 100 ug ml-1	0.0025 µg/mL (≈ 0.0075 µM)	> 400 µg/mL	> 400 µg/mL	> 400 µg/mL	> 400 µg/mL	> 20 µg/mL	EC50 (Human alphaherpesvirus 3 [16]): 0.0069 µg/mL (≈ 0.0207 µM); EC50 (Human alphaherpesvirus 3 [20]): ≥ 122 µg/mL; EC50 [22]: > 400 µg/mL
Nc1nc(O)c2ncn(COC(CO)CO)c2n1 [GANCICLOVIR]		0.0096 µg/mL (≈ 0.0376 µM)						> 100 µg/mL						83.6 µg/mL						0.91 µg/mL (≈ 3.57 µM)	EC50 (Human betaherpesvirus 5 [23]): 1.5 µg/mL (≈ 5.88 µM)
Nc1ncnc2c1ncn2C[C@H](O)CO [(S)-DHPA]	> 100 µg/mL		400 µg/mL (≈ 1910 µM)	> 400 µg/mL	48 µg/mL (≈ 229 µM)	48 µg/mL (≈ 229 µM)	> 100 µg/mL		240 µg/mL (≈ 1150 µM)	> 400 µg/mL	> 400 µg/mL	> 100 µg/mL	> 100 µg/mL			48 µg/mL (≈ 229 µM)	> 400 µg/mL	> 400 µg/mL	240 µg/mL (≈ 1150 µM)		
